Laboratory results: patent US20110130437A1, “SALT FORMS OF A 6-FLUORO-1,2-DIHYDRO-2-OXO-3H-INDOL-3-YLIDENE DERIVATIVE, PROCESS FOR THEIR MANUFACTURE AND PHARMACEUTICAL COMPOSITIONS CONTAINING SAME” (BOEHRINGER INGELHEIM INTERNATIONAL GMBH, priority 2008, published 2011)
Entries after “also recorded” stand apart in the source; their conditions may differ.

What was measured:
Assay type in all cases: physicochemical
[1] = Intrinsic dissolution rate
Excerpt: (§1) Furthermore, although all the above mentioned salt forms are characterized by a low solubility over almost the whole pH range, the chloride salt form presents the advantage of a better dissolution rate.

[2] = Thermal gravimetry (TG) loss of weight; conditions: for loss of weight as measured by thermal gravimetry (TG): crystalline salt forms
Procedure: The crystalline form of the monohydrochloride salt according to the invention is further characterised by a weight loss of ca. 1.6-1.8% water up to 130° C., as determined by Thermal […]). Under standard conditions, the monohydrochloride salt form of the compound according to the invention is present in the form of the hemihydrate, from which water escapes at a temperature of about 130° C. The TG diagram is also depicted in FIG. 1. For example, the sodium and tartrate salt forms have less good crystallinity properties, which affects the stability of the drug substance. […] Thus, the chloride, succinate and bromide salt forms have unexpectedly better crystalline properties for pharmaceutical development than the sodium and tartrate salt forms.

[3] = Hygroscopicity of the salt forms; conditions: for hygroscopicity: in words, judged from TG loss of weight
Excerpt: The monohydrochloride salt form of the compound according to the invention, namely 4-[(Z)-[[4-[(dimethylamino)methyl]phenyl]amino](6-fluoro-1,2-dihydro-2-oxo-3H-indol-3-ylidene)methyl]-benzenepropanoic acid monohydrochloride, is a yellow crystalline powder with irregular shaped crystals. […] For example, the sodium and tartrate salt forms have less good crystallinity properties, which affects the stability of the drug substance. […] Thus, the chloride, succinate and bromide salt forms have unexpectedly better crystalline properties for pharmaceutical development than the sodium and tartrate salt forms.

[4] = Solubility in aqueous media over the pH range; conditions: over a wide pH-range
Excerpt: as §1

[5] = Crystallinity after intensive milling or compression
Excerpt: The monohydrochloride salt form of the compound according to the invention, namely 4-[(Z)-[[4-[(dimethylamino)methyl]phenyl]amino](6-fluoro-1,2-dihydro-2-oxo-3H-indol-3-ylidene)methyl]-benzenepropanoic acid monohydrochloride, is a yellow crystalline powder with irregular shaped crystals.

Row | intrinsic dissolution rate [1] | loss of weight as measured by thermal gravimetry (TG) [2] | hygroscopicity [3] | solubility in aqueous media [4] | change in crystallinity [5] | weight loss of water, determined by Thermal Gravimetry (TG) ([2]; up to 130° C., crystalline form) | hygroscopicity ([3]; monohydrochloride) | SMILES | hygroscopicity ([3]; listed as monohydrochloride salt form, monohydrochloride) | change in crystal modification ([3]; on moisture uptake (slightly hygroscopic))
1 | very slow | ca. 1.5% | slight hygroscopicity | rather low solubility |  |  |  | CN(C)Cc1ccc(N/C(=C2\C(=O)Nc3cc(F)ccc32)c2ccc(CCC(=O)O)cc2)cc1 [succinate, 4-[(Z)-[[4-[(dimethylamino)methyl]phenyl]amino](6-fluoro-1,2-dihydro-2-oxo-3H-indol-3-ylidene)methyl]-benzenepropanoic acid] |  | 
2 |  | ca. 4.3% | strong hygroscopicity |  |  |  |  | CN(C)Cc1ccc(N/C(=C2\C(=O)Nc3cc(F)ccc32)c2ccc(CCC(=O)O)cc2)cc1 [tartrate, 4-[(Z)-[[4-[(dimethylamino)methyl]phenyl]amino](6-fluoro-1,2-dihydro-2-oxo-3H-indol-3-ylidene)methyl]-benzenepropanoic acid] |  | 

Continued, molecule first:

Row | SMILES | intrinsic dissolution rate [1] | loss of weight as measured by thermal gravimetry (TG) [2] | hygroscopicity [3] | solubility in aqueous media [4] | change in crystallinity [5] | weight loss of water, determined by Thermal Gravimetry (TG) ([2]; up to 130° C., crystalline form) | hygroscopicity ([3]; monohydrochloride) | hygroscopicity ([3]; listed as monohydrochloride salt form, monohydrochloride) | change in crystal modification ([3]; on moisture uptake (slightly hygroscopic))
3 | CN(C)Cc1ccc(N/C(=C2\C(=O)Nc3cc(F)ccc32)c2ccc(CCC(=O)O)cc2)cc1 [bromide, 4-[(Z)-[[4-[(dimethylamino)methyl]phenyl]amino](6-fluoro-1,2-dihydro-2-oxo-3H-indol-3-ylidene)methyl]-benzenepropanoic acid] | very slow | ca. 2.2% | slight hygroscopicity | rather low solubility |  |  |  |  | 
4 | CN(C)Cc1ccc(N/C(=C2\C(=O)Nc3cc(F)ccc32)c2ccc(CCC(=O)O)cc2)cc1.Cl [monohydrochloride, 4-[(Z)-[[4-[(dimethylamino)methyl]phenyl]amino](6-fluoro-1,2-dihydro-2-oxo-3H-indol-3-ylidene)methyl]-benzenepropanoic acid monohydrochloride] | acceptable fast | ca. 1.7% |  | rather low solubility | No significant change in crystallinity | 1.6-1.8% | slight hygroscopicity | slightly hygroscopic; also recorded: slight hygroscopicity | no change in crystal modification is observed
5 | CN(C)Cc1ccc(N/C(=C2\C(=O)Nc3cc(F)ccc32)c2ccc(CCC(=O)O)cc2)cc1 [sodium, 4-[(Z)-[[4-[(dimethylamino)methyl]phenyl]amino](6-fluoro-1,2-dihydro-2-oxo-3H-indol-3-ylidene)methyl]-benzenepropanoic acid] |  | ca. 15% | strong hygroscopicity |  |  |  |  |  | 
